Experimental data as given in patent US20240002441A1, “PEPTIDES AND USES THEREOF IN MODULATION OF AMYLOID-BETA PROTEIN DEGRADING PROTEASES” (priority 2020, published 2024).

Experiments:
[1] = system: HEK293 cells; experiment: Peptide stability study in HEK293 cells, LCMS (Example 4); assay type: in vitro ADME; settings: peptide 9 μM, Opti-MEM, 60 min
Procedure: SEQ ID NO:2 was prepared as a C-terminal amidated analogue of SEQ ID NO:1. The stability of SEQ ID NO:1 and SEQ ID NO:2 was assessed in HEK293 and EA.hy926 cells grown in culture and their break down was monitored by LCMS over 60 min using the following procedure.
(§1) HEK293 (passage 24) or Ea.hy926 (passage 37) were seeded into tissue-culture-grade 96-well plates at a density of 20,000 cells/well. After 24 hr, cells were washed with PBS and replaced with Opti-MEM reduced serum media containing SEQ ID NO:1 or SEQ ID NO:2 (9 μM). Aliquots of equal volume were taken at T=0 and 60 min. SEQ ID NO:2 was added to control wells having media (no cells) only. Samples were immediately acidified in 0.1% TFA, snap frozen in dry ice and stored in −80° C. until analysed by LCMS.
(§2) Samples were analyzed by LC-MS/MS on a Shimadzu Nexera uHPLC (Japan) coupled to a Triple Tof 5600 mass spectrometer (ABSCIEX, Canada) equipped with a duo electrospray ion source. One μL of each extract was injected onto a 2.1 mm×100 mm Zorbax C18 1.8 um column (Agilent) at 200 μL/min. […] SEQ ID NO:1 and SEQ ID NO:2 were quantified using the […] doubly charged molecular ion from m/z 510.270 to 510.325. The data was acquired using Analyst TF 1.6 and quantification was carried out using MultiQuant 2.1.1 software (ABSCIEX, Canada).

[2] = Peptide stability control, medium with no cells (Example 4); assay type: in vitro ADME; settings: media only (no cells), possible adherence to plastic
Procedure: as §1
as §2, with “μL/min. Linear gradients of 1-50% solvent B over 7 min at 200 uL/min flow rate, followed by a steeper gradient from 50% to 98% solvent B in 1 min were used for peptide elution. Solvent B was held at 98% for 3 min for washing the column and returned to 1% solvent B for equilibration prior to the next sample injection.” for “μL/min.”

[3] = target: T1, ECE2 (Homo sapiens, UniProt P0DPD6); experiment: QFS assay of Aβ-degrading enzymes: ECE2 (Example 6); assay type: biochemical
T1 construct: purchased R & D systems 1645-ZN-010
T1 sequence (P0DPD6 1-811): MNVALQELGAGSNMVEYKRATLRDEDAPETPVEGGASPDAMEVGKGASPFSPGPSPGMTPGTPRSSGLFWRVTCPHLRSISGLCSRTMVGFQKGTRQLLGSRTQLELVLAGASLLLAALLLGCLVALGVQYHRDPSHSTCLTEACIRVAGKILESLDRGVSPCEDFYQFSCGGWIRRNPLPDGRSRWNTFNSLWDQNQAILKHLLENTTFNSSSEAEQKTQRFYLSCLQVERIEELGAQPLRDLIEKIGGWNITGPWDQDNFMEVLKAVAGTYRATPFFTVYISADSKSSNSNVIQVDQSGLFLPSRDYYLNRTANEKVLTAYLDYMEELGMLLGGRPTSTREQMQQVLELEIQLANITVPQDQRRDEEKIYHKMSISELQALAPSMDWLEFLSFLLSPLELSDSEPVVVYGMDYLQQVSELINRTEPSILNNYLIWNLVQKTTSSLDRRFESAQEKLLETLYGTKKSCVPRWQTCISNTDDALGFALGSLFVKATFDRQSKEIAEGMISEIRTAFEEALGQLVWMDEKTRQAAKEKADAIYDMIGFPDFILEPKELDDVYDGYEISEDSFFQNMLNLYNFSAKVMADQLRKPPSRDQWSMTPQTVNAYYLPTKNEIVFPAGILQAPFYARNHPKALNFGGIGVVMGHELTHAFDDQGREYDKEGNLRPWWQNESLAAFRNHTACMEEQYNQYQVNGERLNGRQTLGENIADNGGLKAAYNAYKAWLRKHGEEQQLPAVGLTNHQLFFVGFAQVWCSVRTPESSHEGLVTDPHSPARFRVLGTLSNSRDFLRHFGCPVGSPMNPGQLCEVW
Procedure: Plate reader-based enzyme assays were performed using a quenched fluorescent substrate (QFS) in a 96-well format using a SpectraMAX M4 Microplate reader (Molecular Devices). The increase in fluorescence following addition of QFS (40 μM) was taken as evidence of enzyme activity. Fluorescence was monitored over 2 h at 37° C. using κEx=320 nm and λEm=405 nm. Assays were conducted in black 96-well plates. Specific enzyme activity was expressed as a rate of substrate cleavage calculated using a standard curve of 7-methoxy-coumarin-4-acetic acid.
In all plate reader-based enzyme assays using QFS, the reaction rate (μmol of substrate cleaved/min) was calculated using linear regression analysis (GraphPad Prism software version 8.01). The reaction rates calculated were used to generate the enzyme kinetic parameters Vmax and Km through non-linear regression analysis (GraphPad Prism software, version 8.01; Michaelis-Menten equation). Where indicated, enzyme activity in the presence of peptide was expressed as a % of the enzyme alone. Data were expressed as mean±SEM and statistical significance was determined using t-tests or one-way ANOVAs followed by Tukey's post-hoc test. P<0.05 was considered as statistically significant. […]
SEQ ID NO:2 was assessed in a QFS assay against enzymes NEP, ECE1, ECE2, ACE1, ACE2, IDE and MMP-2 using the method in Example 2 and the following procedure. […]

H-SLFELGKMIL-NH2 [SEQ ID NO:2, H2N-SLFELGKMIL-NH2]
amount remaining in the medium of HEK293 cells [1]: 54%±4% | amount remaining in the medium with no cells after 60 min [2]: 63%±14% | ECE2 activity compared with respective enzyme alone ([3]; peptide 2 μM (FIG. 2c)): did not increase | ECE2 activity, concentration dependence ([3]; peptide 0.9-26 μM): did not affect
